{"source": "patent US10576166B2", "about": "“Liver specific delivery of messenger RNA” (TRANSLATE BIO, INC., priority 2009, dated 2020)", "key": {"[1]": {"system": "codon-optimized firefly luciferase mRNA in liver", "assay": "In situ hybridization of liver sections with 35S-labeled riboprobes", "format": "in vivo, CD-1 mice", "conditions": "livers of injected animals, 100× magnification, FIG. 4A", "experimental": "(§1) All studies were performed using female CD-1 mice of approximately 3-weeks age at the beginning of each experiment. Samples were introduced by a single bolus tail-vein injection of an equivalent total dose of 200 μg of encapsulated FFL mRNA. Four hours post-injection the mice were sacrificed and perfused with saline.\n(§2) The liver and spleen of each mouse was harvested, apportioned into three parts, and stored in either, (i) 10% neutral buffered formalin, (ii) snap-frozen and stored at −80° C. for bioluminescence analysis (see below), or for in situ hybridization studies, or (iii) liver sections were isolated in isopentane (2-methylbutane) bath, maintained at −35° C., rinsed with 1×PBS, lightly patted with a kimwipe to remove any excess fluid, placed in the bath for approximately 5-7 minutes, after which the liver was removed, wrapped in foil and stored in a small sterile plastic bag at −80° C. until ready for assay.\nSlide preparation and analysis was performed as follows: Each liver was frozen at −35° C. according to the procedure described above. The frozen livers were cut into 6 micrometer sections and mounted onto glass microscope slides. […]\nPhotographic development was carried out in Kodak D-19. Sections were counterstained lightly with cresyl violet and analyzed using brightfield and darkfield microscopy. […]"}, "[2]": {"system": "firefly luciferase protein in hepatocytes", "assay": "Immunohistochemical analysis of liver with anti-firefly antibody", "format": "in vivo", "conditions": "FFL mRNA in lipid transfer vehicle of cholesterol, DOPE, DLinDMA and DMG-PEG2000; treated mice, FIGS. 5B and 5C", "from_the_text": "FIG. 5 illustrates immunohistochemical staining of mouse livers for the detection of firefly luciferase protein. […] Luciferase protein is observed throughout the cytoplasm of the hepatocytes. The abbreviations (S) and (H) correspond to sinusoidal cells and hepatocytes, respectively.\nThe FFL mRNA was packaged and delivered via a lipid transfer vehicle formulation consisting of cholesterol, DOPE, DLinDMA, and DMG-PEG2000 in a manner similar to that described supra.\nThe translation of the FFL mRNA into its respective protein has been successfully identified via immunohistochemical analysis (FIG. 5)."}, "[3]": {"system": "firefly luciferase protein in livers and spleens", "assay": "Bioluminescence assay of expressed firefly luciferase in liver and spleen (biodistribution analysis)", "format": "in vivo", "conditions": "female CD-1 mice, single 200 μg i.v. dose of encapsulated FFL mRNA, 4 hours post-injection", "experimental": "as §1, §2\nThe bioluminescence assay was conducted using a Promega Luciferase Assay System (Item # E1500 Promega). […]\nThe Luciferase Assay Reagent was prepared by adding 10 mL of Luciferase Assay Buffer to Luciferase Assay Substrate and mix via vortex. […] Each plate was inserted into the appropriate chambers using a Molecular Device Flex Station instrument and measure the luminescence (measured in relative light units (RLU)). […]"}}, "data": [{"compound": "FFL mRNA: Codon-optimized firefly luciferase messenger RNA, SEQ ID NO: 1, with 5′ Cap1 and 3′ poly(A) tail of approximately 200 nucleotides", "values": [{"measurement": "Detection of FFL mRNA in liver, dark field illumination, antisense probe", "setting": "[1]", "result": "detected as bright spots"}, {"measurement": "Detection of expressed firefly protein by immunohistochemistry", "setting": "[2]", "result": "can be observed in the hepatocytes of treated mice"}]}, {"compound": "CC(C)CCCC(C)C1CCC2C3CC=C4CC(OC(=O)CCc5cnc[nH]5)CCC4(C)C3CCC12C", "note": "[ICE, (3S,10R,13R,17R)-10,13-dimethyl-17-((R)-6-methylheptan-2-yl)-2,3,4,7,8,9,10,11,12,13,14,15,16,17-tetradecahydro-1H-cyclopenta[a]phenanthren-3-yl 3-(1H-imidazol-4-yl)propanoate]", "values": [{"measurement": "Luminescence / mRNA delivery in liver versus spleen", "setting": "[3]", "result": "enriched delivery of mRNA to liver versus spleen"}]}]}
